Read-outs that look alike come from different tables or passages of the source.
Legend:
[1] = molecular target: T1, cyclic AMP phosphodiesterase (PDE) enzyme obtained from human platelets (Homo sapiens, UniProt Q14432); experiment: inhibition of cyclic AMP phosphodiesterase; assay type: biochemical; settings: human platelet PDE
T1 construct: phosphodiesterase (PDE) enzyme obtained from human platelets; from tissue; host or cells: human platelets
Protocol: This assay is carried out essentially as described by Thompson, et al., Methods in Enzymology, 38, […] (1974). Briefly, tritium labeled cyclic adenosine monophosphate (cAMP) is incubated with a phosphodiesterase (PDE) enzyme obtained from human platelets which converts a portion of the cAMP to 5'AMP in culture tubes. This reaction is terminated by submerging the tubes in a boiling water bath after which they are placed on ice and an aliquot of snake venom is added to each tube. This, during a second incubation, converts the 5'AMP to adenosine. Ion exchange resin is added to bind the remaining cyclic AMP. The tubes are centrifuged to sediment the resin and a portion of the clear supernatent (which contains radioactive adenosine) is counted in a liquid scintillation counter. The cAMP phosphodiesterase inhibition activity of a test agent is determined by pre-incubating the PDE enzyme preparation with the test agent. Dose response values are obtained and activity of the test agent reported as the molar (M) concentration of the test agent inhibition 50% of the PDE activity (IC50 s).

[2] = test system: ferrets; experiment: in vivo inotropic activity in anesthetized ferrets (hemodynamic parameters and right ventricular contractile force); set-up: species or system ferret; settings: for change in vivo at 3 mg/kg: Mustela putorius, intraduodenal, 1 h, 3 mg/kg intraduodenally, monitored 60 minutes
Protocol: This test is […] out in ferrets as follows. Fasted anesthetized ferrets are instrumented to study hemodynamic parameters as well as right ventricular contractile force (RVCF) using a Walton-Brodie open strain gauge arch. Drugs are administered intraduodenally as solutions in DMSO (1 mL or less) and effects on myocardial contractile force and other parameters are monitored for 60 minutes after dosing. Changes in contractile force in response to drug treatment are expressed in terms of percent change from predose control.

[3] = test system: Biolaser-induced thrombosis / platelet aggregation in rabbit ear; experiment: in vivo inhibition of biolaser-induced platelet aggregation in the rabbit ear (Biolaser Model); set-up: species or system rabbit (English, half-lop); settings: for inhibition in vivo at 0.1 mg/kg: Oryctolagus cuniculus, Platelet, po, 0.1 mg/kg orally, 2 hours
Protocol: Transparent ear chambers were chronically implanted in adult, English, half-lop rabbits. The animals were conditioned to lie quietly in a supine position. Localized microvascular injury was induced by focusing a single pulse ruby laser beam through a microscope into the lumen of a vessel […] in diameter. This evoked the formation of a small thrombus consisting of platelets accumulated around a core of one or two damaged red cells. Thrombi areas were determined using computerized planimetry. The mean thrombus area (μM^2) obtained for 10 trials in each rabbit served as the control value. Subsequently, the test compound was administered orally and 2 hours later a second series of laser-induced thrombi trials were performed. Drug activity was evaluated by comparing pre-and post-dose mean thrombus areas. Activity determined at other time points beyond 2 hours establish duration of action.

[4] = test system: ADP-induced platelet aggregation; experiment: in vitro inhibition of ADP-induced platelet aggregation (aggregometer method of Born, platelet rich plasma); assay type: cell-based; settings: human platelet rich plasma; ADP 2.5 mcg/ml; as the dihydrochloride salt; read-out: EC50 versus ADP (inhibition of ADP-induced platelet aggregation)
Protocol: The aggregometer method of Born^1, as modified by Mustard, et al.^2 was used to assess the in vitro activity of the various compounds as to inhibition of adenosine diphosphate (ADP) and collagen-induced platelet aggregation. Platelet rich plasma (PRP) was separated by centrifugation from citrated (3.8 percent) human blood. ADP in final concentration of 2.5 mcg/ml or 0.05 ml of a collagen suspension prepared according to the method described by Evans, et al.^3 was used to induce aggregation. The various Evans, et al. compounds tested were dissolved in dimethylsulfoxide (DMSO) so that 5 mcl added to the platelet rich plasma would yield the desired test concentration. Vehicle control trials were done and compared with aggregation induced in platelet rich plasma containing various concentrations of the test compounds. Dose response curves were thus obtained and Effective Concentration (EC50) values calculated.

[5] = solubility; assay type: physicochemical
[6] = change from predose control, read-out: Ferret, Maximum % Change, VCF (ventricular contractile force)
[7] = read-out: Ferret, Maximum % Change, HR (heart rate)
[8] = read-out: Ferret, Maximum % Change, MAP (mean arterial blood pressure)
[9] = Table I, read-out: cAMP PDE IC50 (m)

T1 sequence (Q14432 whole entry): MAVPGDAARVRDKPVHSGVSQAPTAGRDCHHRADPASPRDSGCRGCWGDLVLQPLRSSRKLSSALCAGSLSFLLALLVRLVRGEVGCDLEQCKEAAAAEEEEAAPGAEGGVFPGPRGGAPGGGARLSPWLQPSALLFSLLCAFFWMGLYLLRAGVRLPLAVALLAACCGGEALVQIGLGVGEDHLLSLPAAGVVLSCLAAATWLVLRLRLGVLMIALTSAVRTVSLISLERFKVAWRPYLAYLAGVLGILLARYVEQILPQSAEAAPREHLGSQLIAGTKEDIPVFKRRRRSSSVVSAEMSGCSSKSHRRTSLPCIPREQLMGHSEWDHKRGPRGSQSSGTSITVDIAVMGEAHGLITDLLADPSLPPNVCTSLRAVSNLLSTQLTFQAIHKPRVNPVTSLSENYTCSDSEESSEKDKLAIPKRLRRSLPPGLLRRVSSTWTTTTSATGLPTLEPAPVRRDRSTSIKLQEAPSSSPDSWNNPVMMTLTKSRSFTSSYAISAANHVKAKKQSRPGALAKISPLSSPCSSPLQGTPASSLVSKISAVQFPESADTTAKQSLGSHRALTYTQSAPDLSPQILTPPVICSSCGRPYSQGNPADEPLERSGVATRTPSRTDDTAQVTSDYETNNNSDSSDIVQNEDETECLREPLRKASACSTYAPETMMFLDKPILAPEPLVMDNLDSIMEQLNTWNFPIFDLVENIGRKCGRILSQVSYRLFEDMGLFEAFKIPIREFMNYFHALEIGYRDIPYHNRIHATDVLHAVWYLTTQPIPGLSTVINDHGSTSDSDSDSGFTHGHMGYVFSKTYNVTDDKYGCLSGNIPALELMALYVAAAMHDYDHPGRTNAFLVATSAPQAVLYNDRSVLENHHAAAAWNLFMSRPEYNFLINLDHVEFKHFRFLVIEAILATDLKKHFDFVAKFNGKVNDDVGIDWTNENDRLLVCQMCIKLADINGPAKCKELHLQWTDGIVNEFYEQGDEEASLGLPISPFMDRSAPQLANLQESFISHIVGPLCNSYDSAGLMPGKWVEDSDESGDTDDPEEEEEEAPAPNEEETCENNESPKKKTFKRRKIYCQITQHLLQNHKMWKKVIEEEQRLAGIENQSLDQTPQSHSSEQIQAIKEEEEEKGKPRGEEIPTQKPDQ

## O=C(CCCOc1ccc2nc3[nH]c(=O)[nH]c3cc2c1)N1CCN(CC2CCCCC2)CC1 [Example 22, 1-(Cyclohexylmethyl)-4-[4-(2,3-dihydro-2-oxo-1H-imidazo[4,5-b]quinolin-7-yloxy)-1-oxybutyl]piperazine]
[1]; read-out: IC50, cAMP phosphodiesterase inhibition
  IC50: 0.4 nM
[2]; [6]
  change in vivo at 3 mg/kg: 27%
[2]; [7]
  change in vivo at 3 mg/kg: 29%
[2]; [8]
  change in vivo at 3 mg/kg: -15%
[3]; rabbit
  inhibition in vivo at 0.1 mg/kg: 59%
[4]
  EC50: 910 nM

## O=C(CCCOc1ccc2nc3[nH]c(=O)[nH]c3cc2c1)N1CCN(Cc2ccccc2)CC1 [Example 11]
[1]; [9]
  IC50: 0.7 nM
[2]; [6]
  change in vivo at 3 mg/kg: 28%
[2]; [7]
  change in vivo at 3 mg/kg: 31%
[2]; [8]
  change in vivo at 3 mg/kg: -42%
[3]; rabbit
  inhibition in vivo at 0.1 mg/kg: 50%

## O=C(CCCOc1ccc2nc3[nH]c(=O)[nH]c3cc2c1)N1CCN(Cc2cccc(C(F)(F)F)c2)CC1 [Example 14, 1-[4-(2,3-Dihydro-2-oxo-1H-imidazo[4,5-b]quinolin-7-(yloxy)-1-oxobutyl]-4-[[3-trifluormethyl)phenyl-]methyl]piperazine]
[1]; [9]
  IC50: 9 nM
[2]; [6]
  change in vivo at 3 mg/kg: 3%
[2]; [7]
  change in vivo at 3 mg/kg: 12%
[2]; [8]
  change in vivo at 3 mg/kg: -16%
[3]; rabbit
  inhibition in vivo at 0.1 mg/kg: 49%

## O=C(CCCOc1ccc2nc3[nH]c(=O)[nH]c3cc2c1)N1CCN(c2ccccn2)CC1 [Example 19]
[1]; [9]
  IC50: 5 nM
[2]; [6]
  change in vivo at 3 mg/kg: -8%
[2]; [7]
  change in vivo at 3 mg/kg: 12%
[2]; [8]
  change in vivo at 3 mg/kg: -15%
[3]; rabbit
  inhibition in vivo at 0.1 mg/kg: 47%

## O=C(CCCOc1ccc2nc3[nH]c(=O)[nH]c3cc2c1)N1CCN(C2CCCCCC2)CC1 [Example 25, 1-Cycloheptanyl-4-[4-(2,3-dihydro-2-oxo-1H-imidazo[4,5-b]quinolin-7-yloxy)-1-oxobutyl]piperazine]
[1]; [9]
  IC50: 0.9 nM
[2]; [6]
  change in vivo at 3 mg/kg: 26%
[2]; [7]
  change in vivo at 3 mg/kg: 17%
[2]; [8]
  change in vivo at 3 mg/kg: -12%
[3]; rabbit
  inhibition in vivo at 0.1 mg/kg: 49%

## O=C(CCCOc1ccc2nc3[nH]c(=O)[nH]c3cc2c1)N1CCN(Cc2ccc(F)cc2)CC1 [Example 13]
[1]; [9]
  IC50: 2 nM
[2]; [6]
  change in vivo at 3 mg/kg: 32%
[2]; [7]
  change in vivo at 3 mg/kg: 21%
[2]; [8]
  change in vivo at 3 mg/kg: -11%
[3]; rabbit
  inhibition in vivo at 0.1 mg/kg: 46%

## O=C(CCCOc1ccc2nc3[nH]c(=O)[nH]c3cc2c1)N1CCN(c2ccccc2)CC1 [1-[4-[(2,3-dihydro-2-oxo-1H-imidazo[4,5-b]-quinolin-7-yl)oxy]-1-oxobutyl]-4-phenylpiperazine, reference compound]
[5]; 2.0n hcl, read-out: solubility in 2.0N HCl
  solubility: < 10 µg/mL
[5]; water, read-out: solubility in water
  solubility: < 10 µg/mL
[3]; 0.3 mg/kg body weight, compared with Table I compounds
  activity in Biolaser Model relative to Table I compounds: markedly less active than Table I compounds
[3]; 0.3 mg/kg body weight, rabbit
  inhibition in Biolaser Model: 22%

## COc1ccc(CN2CCN(C(=O)CCCOc3ccc4nc5[nH]c(=O)[nH]c5cc4c3)CC2)cc1 [Example 15]
[1]; [9]
  IC50: 3 nM
[2]; [6]
  change in vivo at 3 mg/kg: 24%
[2]; [7]
  change in vivo at 3 mg/kg: 17%
[2]; [8]
  change in vivo at 3 mg/kg: -23%
[3]; rabbit
  inhibition in vivo at 0.1 mg/kg: 48%

## O=C(CCCOc1ccc2nc3[nH]c(=O)[nH]c3cc2c1)N1CCN(Cc2cccs2)CC1 [Example 16, 1-[4-(2,3-Dihydro-2-oxo-1H-imidazo[4,5-b]quinolin-7-yloxy)-1-oxobutyl]-4-(2-thienylmethyl)piperazine]
[1]; [9]
  IC50: 0.7 nM
[2]; [6]
  change in vivo at 3 mg/kg: 30%
[2]; [7]
  change in vivo at 3 mg/kg: 16%
[2]; [8]
  change in vivo at 3 mg/kg: -27%
[3]; rabbit
  inhibition in vivo at 0.1 mg/kg: 49%

## Cc1[nH]c(=O)c(C#N)cc1-c1ccncc1 [milrinone, reference compound]
[2]; 3 mg/kg, ferret
  increase in RVCF (right ventricular contractile force): 52%

From patent US4943573A, “Imidazo[4,5-b]quinolinyloxyalkanoic acid amides with enhanced water solubility” (Bristol-Myers Squibb Company, priority 1989, dated 1990)
